From patent US20210221848A1, “POLYMYXIN DERIVATIVES AND THEIR USE IN COMBINATION THERAPY TOGETHER WITH DIFFERENT ANTIBIOTICS” (priority 2014, published 2021)

Legend:
[1] = system: A. baumanii strains with elevated MICs to Polymyxin B; experiment: MIC against strains with elevated MICs to Polymyxin B; format: cell-based, Acinetobacter baumannii; details: Table 6D; for MIC A. baumannii 053: strain 053, elevated MIC to Polymyxin B; for MIC A. baumannii 056: strain 056, elevated MIC to Polymyxin B; for MIC A. baumannii 068: strain 068, elevated MIC to Polymyxin B; for MIC A. baumannii 070: strain 070, elevated MIC to Polymyxin B
Description: (§1) The inoculum was prepared by making a direct suspension of isolated colonies (selected from an 18-24 hour Mueller-Hinton agar plate) adjusted to the 0.5 McFarland standard. […] The assays were performed in duplicate. […] In cases where the duplicate values varied by less than 2-fold, the lower of the two values is reported. If a variation of greater than 2-fold was observed, the assay was considered non-valid. Several of the compounds were subjected to multiple tests, and where this is the case, the MIC reflects the modal value obtained.
(§2) The Further Synthesis Examples were tested against a range of Gram negative bacteria, and tested for HK-2 cell toxicity. All the worked examples, including the Synthesis and Further Synthesis Examples, were also tested against a range of Gram negative bacteria that are resistant to Polymyxin B (i.e. those strains where Polymyxin B has an elevated MIC value).

E. coli = details: sole activity, Table 6C
[2] = system: P. aeruginosa strains with elevated MICs to Polymyxin B; experiment: MIC against strains with elevated MICs to Polymyxin B; format: cell-based, Pseudomonas aeruginosa; details: Table 6D; for MIC P. aeruginosa 065: strain 065, elevated MIC to Polymyxin B; for MIC P. aeruginosa 066: strain 066, elevated MIC to Polymyxin B; for MIC P. aeruginosa 067: strain 067, elevated MIC to Polymyxin B
Description: as §1, §2

K. pneumoniae = details: sole activity, Table 6C
[3] = system: E. coli strains with elevated MICs to Polymyxin B; experiment: MIC against strains with elevated MICs to Polymyxin B; format: cell-based, Escherichia coli; details: Table 6D; for MIC E. coli 058: strain 058, elevated MIC to Polymyxin B; for MIC E. coli 059: strain 059, elevated MIC to Polymyxin B; for MIC E. coli 060: strain 060, elevated MIC to Polymyxin B; for MIC E. coli 061: strain 061, elevated MIC to Polymyxin B
Description: as §1, §2

[4] = system: K. pneumoniae strains with elevated MICs to Polymyxin B; experiment: as above; format: cell-based, Klebsiella pneumoniae; details: Table 6D; for MIC K. pneumoniae 062: strain 062, elevated MIC to Polymyxin B; for MIC K. pneumoniae 063: strain 063, elevated MIC to Polymyxin B; for MIC K. pneumoniae 064: strain 064, elevated MIC to Polymyxin B; for MIC K. pneumoniae 655: strain 655, elevated MIC to Polymyxin B
Description: as §1, §2

A. baumannii = details: sole activity, Table 6C
P. aeruginosa = details: sole activity, Table 6C

## 1-(2- trifluoromethylben- zyl)piperazine- 2-carbonyl L-Thr- L-Dap-polymyxin B heptapeptide [Example D71]
[1]
  MIC A. baumannii 053: 64 micrograms/mL
  MIC A. baumannii 056: 16 micrograms/mL
  MIC A. baumannii 068: 4 micrograms/mL
  MIC A. baumannii 070: 8 micrograms/mL
E. coli
  MIC, E. coli ATCC 25922: 0.25 micrograms/mL
E. coli; E. coli NCTC 13441
  MIC, E. coli NCTC 13441: 0.25 micrograms/mL
[2]
  MIC P. aeruginosa 065: 0.5 micrograms/mL
  MIC P. aeruginosa 066: 1 micrograms/mL
  MIC P. aeruginosa 067: 16 micrograms/mL
K. pneumoniae
  MIC, K. pneumoniae ATCC 4352: 0.25 micrograms/mL
K. pneumoniae; K. pneumoniae ATCC BAA-2146
  MIC, K. pneumoniae ATCC BAA-2146: 0.5 micrograms/mL
[3]
  MIC E. coli 058: 1 micrograms/mL
  MIC E. coli 059: 8 micrograms/mL
  MIC E. coli 060: 4 micrograms/mL
  MIC E. coli 061: 8 micrograms/mL
[4]
  MIC K. pneumoniae 062: 32 micrograms/mL
  MIC K. pneumoniae 063: 16 micrograms/mL
  MIC K. pneumoniae 064: 4 micrograms/mL
  MIC K. pneumoniae 655: 32 micrograms/mL
A. baumannii
  MIC, A. baumannii ATCC BAA-747: 0.5 micrograms/mL
  MIC, A. baumannii NCTC 13424: 0.25 micrograms/mL
P. aeruginosa
  MIC, P. aeruginosa ATCC 27853: 0.5 micrograms/mL
  MIC, P. aeruginosa CCUG 59347: 1 micrograms/mL

## 3-aminomethyl- undecanoyl L- Thr-L-Dap- polymyxin B heptapeptide [Example D91]
[1]
  MIC A. baumannii 053: 8 micrograms/mL
  MIC A. baumannii 056: 2 micrograms/mL
  MIC A. baumannii 068: 2 micrograms/mL
  MIC A. baumannii 070: 1 micrograms/mL
E. coli
  MIC, E. coli ATCC 25922: 0.5 micrograms/mL
[2]
  MIC P. aeruginosa 066: 2 micrograms/mL
  MIC P. aeruginosa 067: 16 micrograms/mL
K. pneumoniae
  MIC, K. pneumoniae ATCC 4352: 0.25 micrograms/mL
[3]
  MIC E. coli 058: 1 micrograms/mL
  MIC E. coli 059: 0.5 micrograms/mL
  MIC E. coli 060: 2 micrograms/mL
  MIC E. coli 061: 4 micrograms/mL
[4]
  MIC K. pneumoniae 062: 8 micrograms/mL
  MIC K. pneumoniae 063: 16 micrograms/mL
  MIC K. pneumoniae 064: 4 micrograms/mL
  MIC K. pneumoniae 655: 8 micrograms/mL
A. baumannii
  MIC, A. baumannii ATCC BAA-747: 0.25 micrograms/mL
  MIC, A. baumannii NCTC 13424: 0.5 micrograms/mL
P. aeruginosa
  MIC, P. aeruginosa ATCC 27853: 0.5 micrograms/mL
  MIC, P. aeruginosa CCUG 59347: 0.5 micrograms/mL

## 3-aminomethyl- undecanoyl L- Thr-L-Dap- polymyxin B heptapeptide [Example D92]
[1]
  MIC A. baumannii 053: 8 micrograms/mL
  MIC A. baumannii 056: 4 micrograms/mL
  MIC A. baumannii 068: 1 micrograms/mL
  MIC A. baumannii 070: 1 micrograms/mL
E. coli
  MIC, E. coli ATCC 25922: 0.5 micrograms/mL
[2]
  MIC P. aeruginosa 065: 0.5 micrograms/mL
  MIC P. aeruginosa 066: 1 micrograms/mL
  MIC P. aeruginosa 067: 8 micrograms/mL
K. pneumoniae
  MIC, K. pneumoniae ATCC 4352: 0.25 micrograms/mL
[3]
  MIC E. coli 058: 0.5 micrograms/mL
  MIC E. coli 059: 0.5 micrograms/mL
  MIC E. coli 060: 1 micrograms/mL
  MIC E. coli 061: 4 micrograms/mL
[4]
  MIC K. pneumoniae 062: 2 micrograms/mL
  MIC K. pneumoniae 063: 8 micrograms/mL
  MIC K. pneumoniae 064: 2 micrograms/mL
  MIC K. pneumoniae 655: 4 micrograms/mL
A. baumannii
  MIC, A. baumannii ATCC BAA-747: 0.5 micrograms/mL
  MIC, A. baumannii NCTC 13424: 0.25 micrograms/mL
P. aeruginosa
  MIC, P. aeruginosa ATCC 27853: 0.25 micrograms/mL
  MIC, P. aeruginosa CCUG 59347: 0.5 micrograms/mL
